Target: Dual leucine zipper kinase (MAP3K12) (Homo sapiens)
Assay: Binding affinity to DLK (unknown origin) assessed as inhibition constant

| Ki [nM] | Structure (SMILES) |
| --- | --- |
| 145 | CC(C)n1nc(Nc2cc(C(F)(F)F)ccn2)cc1C1CCNCC1 |
| 33 | CC(=O)N1CCC(c2cc(Nc3cc(C(F)(F)F)ccn3)nc(N3CCC(F)(F)C3)n2)CC1 |

Reference: BindingDB's records for doi:10.1016/j.ejmech.2023.115404 (Southwest Jiaotong University, 2023)
